Our source for the IC50 values is patent US20100056524A1, “Compound” (priority 2008, published 2010).

By IC50 is commonly meant the concentration that inhibits the measured activity by half.

Molecules are shown by their SMILES. Structures can show the parent of a compound that is named as a salt.

This test addresses T1, TBK1 (Homo sapiens, UniProt Q9UHD2).
T1 construct: All protein kinases were of human origin and encoded full length proteins, unless indicated otherwise; His6; made in house; host or cells: insect Sf21 cells
T1 sequence (Q9UHD2 1-729): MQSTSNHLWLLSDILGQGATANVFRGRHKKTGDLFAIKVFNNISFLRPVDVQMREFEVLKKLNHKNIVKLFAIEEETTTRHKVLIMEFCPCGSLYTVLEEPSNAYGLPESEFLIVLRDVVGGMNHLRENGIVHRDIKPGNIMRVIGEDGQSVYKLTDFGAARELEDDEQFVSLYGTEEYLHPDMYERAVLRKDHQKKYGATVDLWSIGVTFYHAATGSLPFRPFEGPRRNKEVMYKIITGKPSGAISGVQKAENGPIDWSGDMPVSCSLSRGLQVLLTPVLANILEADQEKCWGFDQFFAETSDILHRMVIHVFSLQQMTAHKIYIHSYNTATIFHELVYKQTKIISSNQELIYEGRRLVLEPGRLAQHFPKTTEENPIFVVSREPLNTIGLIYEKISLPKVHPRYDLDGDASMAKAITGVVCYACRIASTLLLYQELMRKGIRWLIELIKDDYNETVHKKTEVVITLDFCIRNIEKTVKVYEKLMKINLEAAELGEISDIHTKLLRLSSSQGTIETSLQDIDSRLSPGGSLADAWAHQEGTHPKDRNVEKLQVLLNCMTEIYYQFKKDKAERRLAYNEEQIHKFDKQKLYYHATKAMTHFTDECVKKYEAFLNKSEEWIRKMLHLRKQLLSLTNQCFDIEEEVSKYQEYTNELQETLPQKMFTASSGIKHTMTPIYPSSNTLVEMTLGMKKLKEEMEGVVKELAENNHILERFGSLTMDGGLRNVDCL
As to the kind of experiment: TBK1 protein kinase assay ([γ-33P]ATP, P81 filterplates). The format is biochemical. As to conditions: 50 μM ATP; read-out: Potency (TBK1 IC50 potency score). The method, boiled down:
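Human TBK1 assayed for 30 min with peptide substrate (300 μM), 50 μM [γ-33P]ATP and 10 mM magnesium acetate in 50 mM Tris/HCl pH 7.5, 0.1 mM EGTA, 0.1% 2-mercaptoethanol. Stopped with orthophosphoric acid and counted on P81 filters. IC50 from 10 compound concentrations.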
As to `Cc1n[nH]c(C)c1C(=O)NCCCNc1nc(Nc2cccc(F)c2)ncc1C1CC1` [Example 13, 3,5-Dimethyl-1H-pyrazole-4-carboxylic acid {3-[5-cyclopropyl-2-(3-fluoro-phenylamino)-pyrimidin-4-ylamino]-propyl}-amide], the IC50 is 1000 to 10000 nM.

Take `O=C(NCCCNc1nc(Nc2ccc(CO)nc2)ncc1C1CC1)C1CCC1` [Example 103, Cyclobutanecarboxylic acid {3-[5-cyclopropyl-2-(6-hydroxymethyl-pyridin-3-ylamino)-pyrimidin-4-ylamino]-propyl}-amide]: the IC50 is less than 100 nM.

Take `CC(C)(C)N1CCC(n2cc(Nc3ncc(C4CC4)c(NCCCNC(=O)C4CCC4)n3)cn2)CC1` [Example 205, Cyclobutanecarboxylic acid (3-{2-[1-(1-tert-butyl-piperidin-4-yl)-1H-pyrazol-4-ylamino]-5-cyclopropyl-pyrimidin-4-ylamino}-propyl)-amide]: the IC50 is less than 100 nM.

With `CCCC(=O)NCCCNc1nc(Nc2cccc(F)c2)ncc1C1CC1` [Example 108], the IC50 was less than 100 nM.

Take `Cc1cccn(CCCNc2nc(Nc3cccc(F)c3)ncc2C2CC2)c1=O` [Example 111, 1-{3-[5-Cyclopropyl-2-(3-fluoro-phenylamino)-pyrimidin-4-ylamino]-propyl}-3-methyl-H-pyridin-2-one]: the IC50 was 100 to 1000 nM.

Turning to `O=C(NCCCNc1nc(Nc2ccc(N3CCCC3)nc2)ncc1C1CC1)C1CCC1` [Example 151, Cyclobutanecarboxylic acid {3-[5-cyclopropyl-2-(6-pyrrolidin-1-yl-pyridin-3-ylamino)-pyrimidin-4-ylamino]-propyl}-amide], the IC50 is less than 100 nM.

For `CN1CCN(Cc2ccc(Nc3ncc(C4CC4)c(NCCCNC(=O)C4CCC4)n3)cn2)CC1` [Example 147, Cyclobutanecarboxylic acid (3-{5-cyclopropyl-2-[6-(4-methyl-piperazin-1-ylmethyl)-pyridin-3-ylamino]-pyrimidin-4-ylamino}-propyl)-amide], the IC50 is less than 100 nM.

`CC(=O)Nc1ccc(Nc2ncc(C3CC3)c(NCCCNC(=O)c3cccs3)n2)cc1` [Example 28, Thiophene-2-carboxylic acid {3-[2-(4-acetylamino-phenylamino)-5-cyclopropyl-pyrimidin-4-ylamino]-propyl}-amide. Hydrochloride salt]: the IC50 is less than 100 nM.

For `Cn1cccc1C(=O)NCCCNc1nc(Nc2cccc(F)c2)ncc1C1CC1` [Example 16, 1-Methyl-1H-pyrrole-2-carboxylic acid {3-[5-cyclopropyl-2-(3-fluoro-phenylamino)-pyrimidin-4-ylamino]-propyl}-amide], the IC50 was in the range of 100 to 1000 nM.

As for `O=C(NCCCNc1nc(Nc2cccc(N3CCOCC3)c2)ncc1C1CC1)c1cccs1` [Example 46, Thiophene-2-carboxylic acid {3-[5-cyclopropyl-2-(3-morpholin-4-yl-phenylamino)-pyrimidin-4-ylamino]-propyl}-amide trifluoroacetic acid salt], the half-maximal inhibitory concentration (IC50) fell in the range of 100 to 1000 nM.

As to `O=C(NCCCNc1nc(Nc2ccccc2)ncc1C1CC1)c1cccs1` [Example 57, Thiophene-2-carboxylic acid [3-(5-cyclopropyl-2-phenylamino-pyrimidin-4-ylamino)-propyl]-amide], the IC50 fell in the range of 100 to 1000 nM.

With `O=C(CC1CCCC1)NCCCNc1nc(Nc2cccc(F)c2)ncc1C1CC1` [Example 6, 2-Cyclopentyl-N-{3-[5-cyclopropyl-2-(3-fluoro-phenylamino)-pyrimidin-4-ylamino]-propyl}-acetamide trifluoroacetic acid salt], the IC50 was less than 100 nM.

Consider `O=C1NCc2cc(Nc3ncc(C4CC4)c(NCCCNC(=O)C4CCC4)n3)ccc21` [Example 90, Cyclobutanecarboxylic acid {3-[5-cyclopropyl-2-(1-oxo-2,3-dihydro-1H-isoindol-5-ylamino)-pyrimidin-4-ylamino]-propyl}-amide. Trifluoroacetic acid salt], for which the IC50 is less than 100 nM.

With `O=C(NCCCNc1nc(Nc2cccc(-c3cnco3)c2)ncc1C1CC1)C1CCC1` [Example 87, Cyclobutanecarboxylic acid {3-[5-cyclopropyl-2-(3-oxazol-5-yl-phenylamino)-pyrimidin-4-ylamino]-propyl}-amide], the IC50 is less than 100 nM.

Turning to `O=C(NCCCNc1nc(Nc2ccc(NCC3CCOCC3)nc2)ncc1C1CC1)C1CCC1` [Example 187], the IC50 is less than 100 nM.

Take `CN1CCN(CCOc2ccc(Nc3ncc(C4CC4)c(NCCCNC(=O)C4CCC4)n3)cn2)CC1` [Example 196, Cyclobutanecarboxylic acid [3-(5-cyclopropyl-2-{6-[2-(4-methyl-piperazin-1-yl)-ethoxy]-pyridin-3-ylamino}-pyrimidin-4-ylamino)-propyl]-amide]: the IC50 is less than 100 nM.

In the case of `O=C(NCCCNc1nc(Nc2cccc(CN3CCCCC3)c2)ncc1C1CC1)C1CCC1` [Example 134, Cyclobulanecarboxylic acid {3-[5-cyclopropyl-2-(3-piperidin-1-ylmethyl-phenylamino)-pyrimidin-4-ylamino]-propyl}-amide], the IC50 was less than 100 nM.

Regarding `O=C(NCCCNc1nc(Nc2cccc(-c3nnn[nH]3)c2)ncc1C1CC1)C1CCC1` [Example 94, Cyclobutanecarboxylic acid (3-{5-cyclopropyl-2-[3-(2H-tetrazol-5-yl)-phenylamino]-pyrimidin-4-ylamino}-propyl)-amide], the concentration for half-maximal inhibition (IC50) fell in the range of 100 to 1000 nM.

Consider `O=C(O)c1cccc(Nc2ncc(C3CC3)c(NCCCNC(=O)C3CCC3)n2)c1` [Example 71, 3-{4-[3-(Cyclobutanecarbonyl-amino)-propylamino]-5-cyclopropyl-pyrimidin-2-ylamino}-benzoic acid hydrochloride salt], for which the IC50 was less than 100 nM.

Take `O=C(NCCCNc1nc(Nc2cccc(F)c2)ncc1C1CC1)c1nccs1` [Example 20, Thiazole-2-carboxylic acid {3-[5-cyclopropyl-2-(3-fluoro-phenylamino)-pyrimidin-4-ylamino]-propyl}-amide]: the IC50 was less than 100 nM.

Consider `CN(C)Cc1ccc(Nc2ncc(C3CC3)c(NCCCNC(=O)C3CCC3)n2)cc1` [Example 173, Cyclobutanecarboxylic acid (3-{5-cyclopropyl-2-[4-(2-dimethylamino-methyl)-phenylamino]-pyrimidin-4-ylamino}-propyl)-amide], for which the IC50 is less than 100 nM.

As for `CNc1ccc(Nc2ncc(C3CC3)c(NCCCNC(=O)C3CCC3)n2)cn1` [Example 204, Cyclobutanecarboxylic acid {3-[5-cyclopropyl-2-(6-methylamino-pyridin-3-ylamino)-pyrimidin-4-ylamino]-propyl}-amide], the IC50 is less than 100 nM.

In the case of `O=C(NCCCNc1nc(Nc2cccc(CN3CCCC3)c2)ncc1C1CC1)C1CCC1` [Example 131, Cyclobutanecarboxylic acid {3-[5-cyclopropyl-2-(3-pyrrolidin-1-ylmethyl-phenylamino)-pyrimidin-4-ylamino]-propyl}-amide], the IC50 was less than 100 nM.

Take `CN1CCc2cc(Nc3ncc(C4CC4)c(NCCCNC(=O)C4CCC4)n3)ccc2C1` [Example 199, Cyclobutanecarboxylic acid {3-[5-cyclopropyl-2-(2-methyl-1,2,3,4-tetrahydro-isoquinolin-6-ylamino)-pyrimidin-4-ylamino]-propyl}-amide]: the IC50 is less than 100 nM.

Consider `O=C(NCCCNc1nc(Nc2ccncc2)ncc1C1CC1)c1cccs1` [Example 63, Thiophene-2-carboxylic acid {3-[5-cyclopropyl-2-(pyridin-4-ylamino)-pyrimidin-4-ylamino]-propyl}-amide], for which the IC50 lay in the range of 100 to 1000 nM.

With `O=C(NCCCNc1nc(Nc2cccc(F)c2)ncc1C1CC1)c1cocn1` [Example 19, Oxazole-4-carboxylic acid {3-[5-cyclopropyl-2-(3-fluoro-phenylamino)-pyrimidin-4-ylamino]-propyl}-amide], the IC50 lay within 100 to 1000 nM.

In the case of `O=C(C1CCC1)N1CC(CNc2nc(Nc3cccc(F)c3)ncc2C2CC2)C1` [Example 162, Cyclobutyl-(3-{[5-cyclopropyl-2-(3-fluoro-phenylamino)-pyrimidin-4-ylamino]-methyl}-azetidin-1-yl)-methanone], the IC50 is 100 to 1000 nM.

Take `CN(CCN1CCOCC1)C(=O)c1cccc(Nc2ncc(C3CC3)c(NCCCNC(=O)C3CCC3)n2)c1` [Example 80, 3-{4-[3-(Cyclobutanecarbonyl-amino)-propylamino]-5-cyclopropyl-pyrimidin-2-ylamino}-N-methyl-N-(2-morpholin-4-yl-ethyl)-benzamide]: the IC50 is less than 100 nM.

With `CN(CCCNc1nc(Nc2ccc(N3CCOCC3)nc2)ncc1C1CC1)C(=O)C1CCC1` [Example 109, Cyclobutanecarboxylic acid {3-[5-cyclopropyl-2-(6-morpholin-4-yl-pyridin-3-ylamino)-pyrimidin-4-ylamino]-propyl}-methyl-amide], the IC50 is less than 100 nM.
